Values quoted from earlier work as cited in Sander's compilation of Henry's law constants.
“And” between values parts separate entries of the source, which are not always exact repeats. Identical values can stand only once. Blank lines part the entries; values can stand above or below the molecule they belong to.

Experiment: Henry solubility constant Hcp at 298.15 K (mol/(m3 Pa))
Settings: cited value
[1] = reference: Burkholder et al. (2015)
[2] = reference: Burkholder et al. (2019)
[3] = reference: Sander et al. (2006)
[4] = reference: Sander et al. (2011)
[5] = reference: Barcelo and Hennion (1997)
[6] = reference: Fogg and Sangster (2003)
[7] = reference: Mackay et al. (1992b)

Henry solubility constant Hcp (reference: Brockbank (2013)): 2.6e-05
Structure (SMILES): CC1CCCCC1 [methylcyclohexane]

Structure (SMILES): [CH3][Hg][CH3] [dimethylmercury]
Henry solubility constant Hcp (reference: Abraham et al. (2008)): 0.0021
Henry solubility constant Hcp (reference: WHO (1990)): 0.0013

Structure (SMILES): CCC[N+](=O)[O-] [1-nitropropane]
Henry solubility constant Hcp (reference: Brockbank (2013)): 0.14
Henry solubility constant Hcp [1]: 0.13
Henry solubility constant Hcp [2]: 0.13
Henry solubility constant Hcp [3]: 0.13
Henry solubility constant Hcp [4]: 0.13

Henry solubility constant Hcp (reference: Brockbank (2013)): 5.7e-06
Structure (SMILES): CCCCCC [hexane]

Henry solubility constant Hcp (reference: Brockbank (2013)): 2.1e-05
Structure (SMILES): CCC1CCCCC1 [ethylcyclohexane]

Structure (SMILES): O=C(O)C(Cl)(Cl)Cl [trichloroethanoic acid]
Henry solubility constant Hcp [1]: 730
Henry solubility constant Hcp [2]: 730
Henry solubility constant Hcp [4]: 730

Structure (SMILES): CCNc1nc(Cl)nc(NC(C)(C)C#N)n1 [cyanazine]
Henry solubility constant Hcp [5]: 33000

Structure (SMILES): c1cc2c3c(cccc3c1)CC2 [acenaphthene]
Henry solubility constant Hcp (reference: Brockbank (2013)): 0.072
Henry solubility constant Hcp [6]: 0.055
Henry solubility constant Hcp (reference: Goldstein (1982)): 0.041
Henry solubility constant Hcp (reference: HSDB (2015)): 0.064
Henry solubility constant Hcp (reference: McCarty (1980)): 0.052

Structure (SMILES): Nc1ccccc1[N+](=O)[O-] [2-nitrobenzenamine]
Henry solubility constant Hcp (reference: Brockbank (2013)): 71

Henry solubility constant Hcp (reference: Brockbank (2013)): 0.51
Structure (SMILES): CC(C)C(C)O (stereo not given) [3-methyl-2-butanol]

Structure (SMILES): Cc1ccc(O)c(C)c1 [1-hydroxy-2,4-dimethylbenzene]
Henry solubility constant Hcp (reference: Brockbank (2013)): 3.5
Henry solubility constant Hcp (reference: Goldstein (1982)): 4.1
Henry solubility constant Hcp (reference: Howard (1989)): 16
Henry solubility constant Hcp (reference: Petrasek et al. (1983)): 17

Structure (SMILES): CN(C)C(=S)SSC(=S)N(C)C [thiram]
Henry solubility constant Hcp (reference: MacBean (2012b)): 30

Henry solubility constant Hcp (reference: Brockbank (2013)): 0.00014
Structure (SMILES): CCCCCCCCCc1ccccc1 [nonylbenzene]

Henry solubility constant Hcp (reference: Brockbank (2013)): 5.9e-06
Structure (SMILES): CCC(C)CC [3-methylpentane]

Structure (SMILES): CN [methanamine]
Henry solubility constant Hcp [1]: 0.89
Henry solubility constant Hcp [2]: 0.89

Henry solubility constant Hcp (reference: Brockbank (2013)): 0.0015
Structure (SMILES): Fc1ccccc1 [fluorobenzene]

Henry solubility constant Hcp (reference: Howard and Meylan (1997)): 0.12
Structure (SMILES): CCOCCOCC [1,2-diethoxyethane]

Structure (SMILES): O=C=S [carbon oxide sulfide]
Henry solubility constant Hcp [1]: 0.0002
Henry solubility constant Hcp [2]: 0.0002
Henry solubility constant Hcp [3]: 0.0002
Henry solubility constant Hcp [4]: 0.0002

Henry solubility constant Hcp (reference: Brockbank (2013)): 0.044
Structure (SMILES): CCCOC(C)=O [propyl ethanoate]

Henry solubility constant Hcp (reference: Brockbank (2013)): 0.0064
Structure (SMILES): CCOC(=O)C(C)(C)C [ethyl 2,2-dimethylpropanoate]

Structure (SMILES): O=C(O)CCCC(=O)O [pentanedioic acid]
Henry solubility constant Hcp [1]: 3.8e+07
Henry solubility constant Hcp [2]: 3.8e+07

Henry solubility constant Hcp (reference: Brockbank (2013)): 0.014
Structure (SMILES): CCOC(=O)CC(C)C [ethyl 3-methylbutanoate]

Structure (SMILES): Cc1cccc(C)c1N(Cn1cccn1)C(=O)CCl [metazachlor]
Henry solubility constant Hcp [5]: 13

Henry solubility constant Hcp (reference: Brockbank (2013)): 0.0045
Structure (SMILES): CC(C)OC(C)C [diisopropyl ether]

Structure (SMILES): CC(Cc1ccc(C(C)(C)C)cc1)CN1C[C@@H](C)O[C@@H](C)C1 (stereo not given in full) [fenpropimorph]
Henry solubility constant Hcp [5]: 0.062

Structure (SMILES): Cc1ccc2ccccc2c1 [2-methylnaphthalene]
Henry solubility constant Hcp (reference: Brockbank (2013)): 0.02
Henry solubility constant Hcp [6]: 0.018
Henry solubility constant Hcp [7]: 0.02

Structure (SMILES): CCOP(=S)(OCC)SCSC(C)(C)C [terbufos]
Henry solubility constant Hcp [5]: 0.0099

Henry solubility constant Hcp (reference: MacBean (2012b)): 14000
Structure (SMILES): O=C(O)C1(C(=O)Nc2ccc(Cl)cc2Cl)CC1 [cyclanilide]

Structure (SMILES): Clc1cc(Cl)c(Cl)c(Cl)c1 [1,2,3,5-tetrachlorobenzene]
Henry solubility constant Hcp (reference: Meylan and Howard (1991)): 0.0063

Structure (SMILES): COC(=O)c1ccccc1S(=O)(=O)NC(=O)N(C)c1nc(C)nc(OC)n1 [tribenuron-methyl]
Henry solubility constant Hcp (reference: MacBean (2012b)): 9.7e+07

Henry solubility constant Hcp (reference: Brockbank (2013)): 0.0015
Structure (SMILES): CCCCS [1-butanethiol]

Structure (SMILES): CCOCC [diethyl ether]
Henry solubility constant Hcp (reference: Brockbank (2013)): 0.0099
Henry solubility constant Hcp [1]: 0.02
Henry solubility constant Hcp [2]: 0.0099

Structure (SMILES): Clc1ccc(Cl)cc1 [1,4-dichlorobenzene]
Henry solubility constant Hcp (reference: Brockbank (2013)): 0.0038
Henry solubility constant Hcp [6]: 0.0045
Henry solubility constant Hcp (reference: Goldstein (1982)): 0.0037

Structure (SMILES): CCCCOC(C)=O [butyl ethanoate]
Henry solubility constant Hcp (reference: Brockbank (2013)): 0.038
Henry solubility constant Hcp (reference: Goldstein (1982)): 0.021

Structure (SMILES): N#CCCCCC#N [hexanedinitrile]
Henry solubility constant Hcp (reference: Plyasunov et al. (2006)): 1500

Structure (SMILES): BrC(Br)C(Br)Br [1,1,2,2-tetrabromoethane]
Henry solubility constant Hcp (reference: Brockbank (2013)): 0.014
Henry solubility constant Hcp [2]: 0.014

Structure (SMILES): CC(CCl)OC(C)CCl (stereo not given) [bis-(2-chloroisopropyl) ether]
Henry solubility constant Hcp (reference: Goldstein (1982)): 0.065 and 0.064

Structure (SMILES): CN1CSC(=S)N(C)C1 [dazomet]
Henry solubility constant Hcp (reference: MacBean (2012b)): 37000

Structure (SMILES): CCc1cccc2ccccc12 [1-ethylnaphthalene]
Henry solubility constant Hcp (reference: Brockbank (2013)): 0.02
Henry solubility constant Hcp [7]: 0.026

Henry solubility constant Hcp (reference: Brockbank (2013)): 0.089
Henry solubility constant Hcp (reference: Cabani et al. (1981)): 0.13
Henry solubility constant Hcp (reference: Howard (1993)): 0.11
Structure (SMILES): CCC(=O)CC [3-pentanone]
